The first data set relates to HeLa cells stably expressing HaloGFP. Nature of the data set: Chloroalkane penetration assay (CAPA), membrane permeability and cellular uptake. The data set is classed as cell-based.
Conditions: not given
An excerpt:
Since PSD-95 is located intracellularly, it is essential for any drug targeting PSD-95 to efficiently cross the cell membrane. To assess the cellular permeability and delivery to the cytosol of the compounds as defined herein, the cellular chloroalkane penetration assay (CAPA) may be used (Peraro et al. 2018). This assay takes advantage of a modified haloalkane dehalogenase designed to covalently bind chloroalkane (CA) molecules. A HeLa cell line expressing a fusion protein comprising a HaloTag, a green fluorescent protein (GFP) and a mitochondria-targeting peptide is used to report cytosolic delivery. The general format of the CAPA is a pulse-chase assay (Deprey & Kritzer, 2020). Cells expressing the HaloTag enzyme are incubated with CA-tagged peptides. When these CA-peptides penetrate the cell membrane and reach the cytosol, they will bind to and react with the HaloTag (pulse step). Following a washing step, the cells are incubated with a CA-tagged dye that quantitatively penetrates the cell membrane and reacts with remaining unreacted HaloTag sites (chase step). Flow cytometry is used to measure the fluorescence intensity of the cells and the measured fluorescence is inversely proportional to the amount of CA-peptides that reach the penetrated the cells and can thus be used to assess cytosolic delivery. The obtained data is commonly expressed as CP50 values, the concentration at which 50% cell penetration is observed. The CP50 value of a compound may be measured as described in example 4.
The membrane permeability of compounds 10 to 75 was determined in HeLa cells stably expressing HaloGFP exclusively located in the cytosol. Cells were seeded at a density of 40.000 cells/well one day prior to the experiment. After the growth media was aspirated and replaced by 100 μL of Opti-MEM, 25 μL of a prepared serial dilution of the ligand in Opti-MEM was added to the cells (constant DMSO concentration), and the plate was incubated for 4 h at 37° C. and 5% CO2. The contents of the wells were aspirated, and cells were washed with fresh Opti-MEM for 15 min. After aspiration of the wash, the cells were incubated with TAMRA-CA (5 μM) for 15 min. After aspiration of the chase solution, cells were washed with Opti-MEM for 30 min. Following removal of the wash, cells were trypsinized, resuspended in PBS (2% FBS), and analyzed using a benchtop flow cytometer. Using no ligand and no TAMRA-CA control well, the obtained fluorescence intensity data was normalized and plotted as dose-response curves. Reported CP50 values represent half-maximum red fluorescence which behaves inverse to cell penetration of the ligand.
Turning to `CC(C)C[C@H](NC(=O)[C@@H](NC(=O)[C@H](CCC(=O)O)NC(=O)[C@H](CCCCN)NC(=O)CCOCCOCCN(CCOCCOCCC(=O)N[C@@H](CCCCN)C(=O)N[C@@H](CCC(=O)O)C(=O)N[C@H](C(=O)N[C@@H](CC(C)C)C(=O)N[C@H](C(=O)O)C(C)C)[C@@H](C)O)C(=O)[C@H](CCCNC(=N)N)NC(=O)[C@H](CCCNC(=N)N)NC(=O)[C@H](CCCNC(=N)N)NC(=O)[C@H](CCCNC(=N)N)NC(=O)[C@H](CCCNC(=N)N)NC(=O)[C@H](CCCNC(=N)N)NC(=O)[C@H](CCCNC(=N)N)NC(=O)[C@H](CCCNC(=N)N)NC(=O)[C@H](CCCNC(=N)N)NC(=O)CCC(=O)NCCOCCOCCCCCCCl)[C@@H](C)O)C(=O)N[C@H](C(=O)O)C(C)C` [Compound 24], the CP50 amounted to 0.78 ± 0.05 µM. On the same count and under the same terms, for `CC(C)[C@H](NC(=O)[C@@H](NC(=O)[C@@H](NC(=O)[C@H](CCC(=O)O)NC(=O)[C@H](CCCCN)NC(=O)CCOCCOCCN(CCOCCOCCC(=O)N[C@@H](CCCCN)C(=O)N[C@@H](CCC(=O)O)C(=O)N[C@H](C(=O)N[C@H](C(=O)N[C@H](C(=O)O)C(C)C)[C@@H](C)O)[C@@H](C)O)C(=O)[C@H](CCCNC(=N)N)NC(=O)[C@H](CCCNC(=N)N)NC(=O)[C@H](CCCNC(=N)N)NC(=O)[C@H](CCCNC(=N)N)NC(=O)[C@H](CCCNC(=N)N)NC(=O)[C@H](CCCNC(=N)N)NC(=O)[C@H](CCCNC(=N)N)NC(=O)[C@H](CCCNC(=N)N)NC(=O)[C@H](CCCNC(=N)N)NC(=O)CCC(=O)NCCOCCOCCCCCCCl)[C@@H](C)O)[C@@H](C)O)C(=O)O` [Compound 26] the value was 0.74 ± 0.09 µM; for `CC(C)[C@H](NC(=O)[C@@H](NC(=O)[C@@H](NC(=O)[C@H](CCC(=O)O)NC(=O)[C@H](CCCCN)NC(=O)CCOCCOCCN(CCOCCOCCC(=O)N[C@@H](CCCCN)C(=O)N[C@@H](CCC(=O)O)C(=O)N[C@H](C(=O)N[C@H](C(=O)N[C@H](C(=O)O)C(C)C)C(C)C)[C@@H](C)O)C(=O)[C@H](CCCNC(=N)N)NC(=O)[C@H](CCCNC(=N)N)NC(=O)[C@H](CCCNC(=N)N)NC(=O)[C@H](CCCNC(=N)N)NC(=O)[C@H](CCCNC(=N)N)NC(=O)[C@H](CCCNC(=N)N)NC(=O)[C@H](CCCNC(=N)N)NC(=O)[C@H](CCCNC(=N)N)NC(=O)[C@H](CCCNC(=N)N)NC(=O)CCC(=O)NCCOCCOCCCCCCCl)[C@@H](C)O)C(C)C)C(=O)O` [Compound 28], 0.79 ± 0.06 µM.

Still in this data set, the particulars now being: CA-tagged NPEG4-(IETDV)2 with various CPP-tags, 4 h at 37° C.; mean ± SEM (Table 11, FIG. 8).
In the case of `CC[C@H](C)[C@H](NC(=O)CCOCCOCCN(CCOCCOCCC(=O)N[C@H](C(=O)N[C@@H](CCC(=O)O)C(=O)N[C@H](C(=O)N[C@@H](CC(=O)O)C(=O)N[C@H](C(=O)O)C(C)C)[C@@H](C)O)[C@@H](C)CC)C(=O)[C@H](CCCNC(=N)N)NC(=O)[C@H](CCCNC(=N)N)NC(=O)[C@H](CCCNC(=N)N)NC(=O)[C@H](CCC(N)=O)NC(=O)[C@H](CCCNC(=N)N)NC(=O)[C@H](CCCNC(=N)N)NC(=O)[C@H](CCCCN)NC(=O)[C@H](CCCCN)NC(=O)[C@H](CCCNC(=N)N)NC(=O)CNC(=O)[C@H](Cc1ccc(O)cc1)NC(=O)CCC(=O)NCCOCCOCCCCCCCl)C(=O)N[C@@H](CCC(=O)O)C(=O)N[C@H](C(=O)N[C@@H](CC(=O)O)C(=O)N[C@H](C(=O)O)C(C)C)[C@@H](C)O` [Compound 10], the CP50 was 55.1 ± 3.0 µM.

The same data set, now with this note: CA-tagged ligands, 4 h at 37° C.; L-TAT and L-Arg9; mean ± SEM (Table 10, FIG. 7).
In turn, `CC[C@H](C)[C@H](NC(=O)CCOCCOCCN(CCOCCOCCC(=O)N[C@H](C(=O)N[C@@H](CCC(=O)O)C(=O)N[C@H](C(=O)N[C@@H](CC(=O)O)C(=O)N[C@H](C(=O)O)C(C)C)[C@@H](C)O)[C@@H](C)CC)C(=O)[C@H](CCCNC(=N)N)NC(=O)[C@H](CCCNC(=N)N)NC(=O)[C@H](CCCNC(=N)N)NC(=O)[C@H](CCC(N)=O)NC(=O)[C@H](CCCNC(=N)N)NC(=O)[C@H](CCCNC(=N)N)NC(=O)[C@H](CCCCN)NC(=O)[C@H](CCCCN)NC(=O)[C@H](CCCNC(=N)N)NC(=O)CNC(=O)[C@H](Cc1ccc(O)cc1)NC(=O)CCC(=O)NCCOCCOCCCCCCCl)C(=O)N[C@@H](CCC(=O)O)C(=O)N[C@H](C(=O)N[C@@H](CC(=O)O)C(=O)N[C@H](C(=O)O)C(C)C)[C@@H](C)O` [Compound 10] returned a CP50 of 55.1 ± 3.0 µM. In turn, `CC(C)C[C@H](NC(=O)[C@@H](NC(=O)[C@H](CCC(=O)O)NC(=O)[C@H](CCCCN)NC(=O)CCOCCOCCN(CCOCCOCCC(=O)N[C@@H](CCCCN)C(=O)N[C@@H](CCC(=O)O)C(=O)N[C@H](C(=O)N[C@@H](CC(C)C)C(=O)N[C@H](C(=O)O)C(C)C)[C@@H](C)O)C(=O)[C@H](CCCNC(=N)N)NC(=O)[C@H](CCCNC(=N)N)NC(=O)[C@H](CCCNC(=N)N)NC(=O)[C@H](CCC(N)=O)NC(=O)[C@H](CCCNC(=N)N)NC(=O)[C@H](CCCNC(=N)N)NC(=O)[C@H](CCCCN)NC(=O)[C@H](CCCCN)NC(=O)[C@H](CCCNC(=N)N)NC(=O)CNC(=O)[C@H](Cc1ccc(O)cc1)NC(=O)CCC(=O)NCCOCCOCCCCCCCl)[C@@H](C)O)C(=O)N[C@H](C(=O)O)C(C)C` [Compound 12] yielded a CP50 of 72.5 ± 4.4 µM. Regarding `CC(C)[C@H](NC(=O)[C@@H](NC(=O)[C@@H](NC(=O)[C@H](CCC(=O)O)NC(=O)[C@H](CCCCN)NC(=O)CCOCCOCCN(CCOCCOCCC(=O)N[C@@H](CCCCN)C(=O)N[C@@H](CCC(=O)O)C(=O)N[C@H](C(=O)N[C@H](C(=O)N[C@H](C(=O)O)C(C)C)[C@@H](C)O)[C@@H](C)O)C(=O)[C@H](CCCNC(=N)N)NC(=O)[C@H](CCCNC(=N)N)NC(=O)[C@H](CCCNC(=N)N)NC(=O)[C@H](CCC(N)=O)NC(=O)[C@H](CCCNC(=N)N)NC(=O)[C@H](CCCNC(=N)N)NC(=O)[C@H](CCCCN)NC(=O)[C@H](CCCCN)NC(=O)[C@H](CCCNC(=N)N)NC(=O)CNC(=O)[C@H](Cc1ccc(O)cc1)NC(=O)CCC(=O)NCCOCCOCCCCCCCl)[C@@H](C)O)[C@@H](C)O)C(=O)O` [Compound 14], the CP50 came to 78.4 ± 3.9 µM. The same measure, in the same setting: next, `CC(C)[C@H](NC(=O)[C@@H](NC(=O)[C@@H](NC(=O)[C@H](CCC(=O)O)NC(=O)[C@H](CCCCN)NC(=O)CCOCCOCCN(CCOCCOCCC(=O)N[C@@H](CCCCN)C(=O)N[C@@H](CCC(=O)O)C(=O)N[C@H](C(=O)N[C@H](C(=O)N[C@H](C(=O)O)C(C)C)C(C)C)[C@@H](C)O)C(=O)[C@H](CCCNC(=N)N)NC(=O)[C@H](CCCNC(=N)N)NC(=O)[C@H](CCCNC(=N)N)NC(=O)[C@H](CCC(N)=O)NC(=O)[C@H](CCCNC(=N)N)NC(=O)[C@H](CCCNC(=N)N)NC(=O)[C@H](CCCCN)NC(=O)[C@H](CCCCN)NC(=O)[C@H](CCCNC(=N)N)NC(=O)CNC(=O)[C@H](Cc1ccc(O)cc1)NC(=O)CCC(=O)NCCOCCOCCCCCCCl)[C@@H](C)O)C(C)C)C(=O)O` [Compound 16]: 81.8 ± 1.2 µM; `CC(C)[C@H](NC(=O)[C@H](CCCNC(=N)N)NC(=O)[C@@H](NC(=O)[C@H](CCC(=O)O)NC(=O)[C@H](CCCCN)NC(=O)CCOCCOCCN(CCOCCOCCC(=O)N[C@@H](CCCCN)C(=O)N[C@@H](CCC(=O)O)C(=O)N[C@H](C(=O)N[C@@H](CCCNC(=N)N)C(=O)N[C@H](C(=O)O)C(C)C)[C@@H](C)O)C(=O)[C@H](CCCNC(=N)N)NC(=O)[C@H](CCCNC(=N)N)NC(=O)[C@H](CCCNC(=N)N)NC(=O)[C@H](CCC(N)=O)NC(=O)[C@H](CCCNC(=N)N)NC(=O)[C@H](CCCNC(=N)N)NC(=O)[C@H](CCCCN)NC(=O)[C@H](CCCCN)NC(=O)[C@H](CCCNC(=N)N)NC(=O)CNC(=O)[C@H](Cc1ccc(O)cc1)NC(=O)CCC(=O)NCCOCCOCCCCCCCl)[C@@H](C)O)C(=O)O` [Compound 18]: 47.7 ± 1.0 µM. The same measure, in the same setting: for `CC[C@H](C)[C@H](NC(=O)CCOCCOCCN(CCOCCOCCC(=O)N[C@H](C(=O)N[C@@H](CO)C(=O)N[C@H](C(=O)N[C@@H](CC(=O)O)C(=O)N[C@H](C(=O)O)C(C)C)[C@@H](C)O)[C@@H](C)CC)C(=O)[C@H](CCCNC(=N)N)NC(=O)[C@H](CCCNC(=N)N)NC(=O)[C@H](CCCNC(=N)N)NC(=O)[C@H](CCC(N)=O)NC(=O)[C@H](CCCNC(=N)N)NC(=O)[C@H](CCCNC(=N)N)NC(=O)[C@H](CCCCN)NC(=O)[C@H](CCCCN)NC(=O)[C@H](CCCNC(=N)N)NC(=O)CNC(=O)[C@H](Cc1ccc(O)cc1)NC(=O)CCC(=O)NCCOCCOCCCCCCCl)C(=O)N[C@@H](CO)C(=O)N[C@H](C(=O)N[C@@H](CC(=O)O)C(=O)N[C@H](C(=O)O)C(C)C)[C@@H](C)O` [Compound 20] the value was 41.9 ± 1.6 µM; for `CC(C)[C@H](NC(=O)[C@@H](NC(=O)[C@@H](NC(=O)[C@H](CCC(=O)O)NC(=O)[C@@H](NC(=O)CCOCCOCCN(CCOCCOCCC(=O)N[C@H](C(=O)N[C@@H](CCC(=O)O)C(=O)N[C@H](C(=O)N[C@H](C(=O)N[C@H](C(=O)O)C(C)C)C(C)C)[C@@H](C)O)C(C)C)C(=O)[C@H](CCCNC(=N)N)NC(=O)[C@H](CCCNC(=N)N)NC(=O)[C@H](CCCNC(=N)N)NC(=O)[C@H](CCC(N)=O)NC(=O)[C@H](CCCNC(=N)N)NC(=O)[C@H](CCCNC(=N)N)NC(=O)[C@H](CCCCN)NC(=O)[C@H](CCCCN)NC(=O)[C@H](CCCNC(=N)N)NC(=O)CNC(=O)[C@H](Cc1ccc(O)cc1)NC(=O)CCC(=O)NCCOCCOCCCCCCCl)C(C)C)[C@@H](C)O)C(C)C)C(=O)O` [Compound 22], 86.1 ± 4.5 µM.

Source of the values: patent publication US20240245793A1, “PSD-95 INHIBITORS AND USES THEREOF” (priority 2021, published 2024).
